Results from patent publication US11672802B2, “Induction of immune tolerance by using methotrexate” (Genzyme Corporation, priority 2011, dated 2023).
“Also recorded” adds a separate entry of the source.

What was measured:
[1] = test system: anti-mATG antibody; test: Anti-mATG titers in cardiac allograft transplant mice; type: in vivo; conditions: seven days following transplant, mice treated with methotrexate and mATG
Procedure: Polyclonal antibody mATG was administered as an intraperitoneal injection of 5 mg/kg every four weeks or as two 20 mg/kg doses given four days apart when in the transplant setting with the first dose given on the day of transplant (day 0).
The levels of anti-mATG IgG in mouse serum were analyzed by enzyme linked immunosorbent assay (ELISA). […] End-point titers were defined as the […] dilution that averages above an absorbance of 0.100 using Softmax software (Molecular Devices, Sunnyvale, Calif., USA).
C57BL/6 and BALB/c mice were obtained from Charles River (Kingston, N.Y. or Raleigh, N.C.) and used in these experiments between 8 and 13 weeks of age. The donor allogenic C57BL/6 mice were first anesthetized with an intraperitoneal injection of Ketamine (Fort Dodge Animal Health/Pfizer, Fort Dodge, Iowa) and Xylazine (Lloyd, Shenandoah, Iowa) and a median sternotomy was performed. […] The ascending aorta and pulmonary artery were then transected, the graft removed from the donor and the heart was stored in ice-cold saline until engraftment. A recipient mouse (Balb/c) was similarly anesthetized and prepped as described above for donor mice, except that the abdominal cavity was opened. […] Grafts were assessed by palpation 5-7 times per week for the first 30 day, and then 3-4 times per week until the end of the study.

[2] = test system: anti-allograft antibodies; test: Serum alloantibody levels (binding to allogeneic fibroblasts); type: in vivo, mice; conditions: day 21, allogeneic heart transplant
Procedure: Serum alloantibody levels were determined by incubating serum from cardiac transplanted or normal mice at 1:50 dilutions with an SV40 transformed C57BL/6 fibroblast line (SVB6) followed by detection of fibrobast bound antibodies (alloantibodies) using FITC rabbit anti-mouse IgG (Dako, Carpinteria, Calif.) and by flow cytometric analysis. Geometric mean fluorescent intensities of serum stained fibroblasts were divided by isotype control stained fibroblasts to normalize alloantibody levels between experiments.

CN(Cc1cnc2nc(N)nc(N)c2n1)c1ccc(C(=O)N[C@@H](CCC(=O)O)C(=O)O)cc1 [methotrexate, Methotrexate]
anti-rabbit IgG antibody titers [1]: significantly lower
anti-allograft antibody (alloantibody) levels [2]: significantly reduce; also recorded: significantly lower
